Measurements published in US10126289B2, “Multimodality CMOS sensor array for physiological characterization of cells” (Georgia Tech Research Corporation, priority 2015, dated 2018).

What was measured:
[1] = tested on: human ovarian cancer cells (HeyA8-F8); conditions: general statement; depends on number of cells and luciferin concentration; cited from earlier work
[2] = tested on: human ovarian cancer cells (HeyA8-F8); conditions: 200 μg/mL luciferin at T=0; VPD 0.4V
Procedure: Ovarian Cancer Cells. For culturing the ovarian cancer cells (HeyA8-F8), the CMOS chip surface is sterilized by 70% ethanol and then washed three times with sterile Phosphate Buffered Saline (PBS). To increase cell adhesion to the chip surface, 0.1% gelatin is added onto the chip for 30 minutes before being aspirated. […] Ovarian cancer cells are then seeded directly onto the CMOS chip and allowed to attach before adding 1 mL of cell culture media.
The human ovarian cancer cells (HeyA8-F8) can constitutively express firefly luciferase. […] The bioluminescence information can be used to verify the viability of the HeyA8-F8 cancer cells and can be further extended to other bioluminescence cell-based assays.
Since the intensity of the bioluminescence light is generally weak, the background noise, such as the photodiode dark current, should be suppressed and calibrated. […] Moreover, dark current in each sensing pixel is recorded before the measurement and then subtracted after the bioluminescence recoding.
The CMOS sensor chip starts data recording after a 130-second setup time. During the optical detection, the photodiode reset pulse width is 1 second and the repetition rate is 0.05 Hz. Thus, each photo current integration window is 19 seconds, and the optical detection data is refreshed every 20 seconds. […]

human cardiomyocytes [3] = experiment: Joint-modality cardiac drug screening: extracellular voltage recording of cardiomyocyte beating on CMOS sensor chip; assay type: cell-based; conditions: 10 nM isoproterenol in culture medium
Procedure: (§1) Human Cardiomyocytes. Human ESCs are first cultured in a monolayer until confluence. Next, cardiomyocytes are directly differentiated through the use of small molecules Gsk3 inhibitor and Wnt inhibitor for 14 days. Finally, the CMOS chip is sterilized using 70% ethanol and coated with a Matrigel matrix as a protein mixture layer to enhance cell culture and attachment. Cardiomyocytes are then seeded onto the CMOS chips as either single cells or aggregated cardiospheres.
(§2) On-chip cultured human cardiomyocytes was used in this experiment. Their autonomous beating is captured by the extracellular voltage recording, and the beating rate is used to characterize the potency of the cardiac drugs. Isoproterenol, a small molecule cardiac drug, is used in this example. Isoproterenol has its known drug effect of activating the β1-receptors on the cardiac cells and increasing the cardiac cells beating rate. It has been widely used to treat bradycardia and heart block.
(§3) First, the on-chip cardiomyocytes beating spikes were recorded as the extracellular voltage recording in a normal culture medium. The baseline cellular impedance mapping was also measured. Next, 10 nM isoproterenol was directed to the cell culture medium using pipettes, and the cardiomyocytes are real-time monitored with joint-modality measurements. […]

human cardiomyocytes [4] = experiment: Joint-modality cardiac drug screening: real-time cellular impedance sensing (cell attachment); assay type: cell-based; conditions: 10 nM isoproterenol; FIG. 20
Procedure: as §1, §2, §3

## O=C(O)[C@H]1CSC(c2nc3ccc(O)cc3s2)=N1 [luciferin]
[1]
  time of luminescence emission peak after administration (in general): about 5 minutes
[2]
  time at which bioluminescence emission fully decays: 800 s
  time of bioluminescence emission peak after administration: around 300 seconds

## CC(C)NCC(O)c1ccc(O)c(O)c1 (centres unmarked) [isoproterenol, Isoproterenol]
Human cardiomyocytes [3]
  increase of recorded number of cell beating spikes in the 90-second counting window: 150%
Human cardiomyocytes [4]
  real-time cardiomyocytes impedance change (cell attachment): small decrease
